Drawing on ChEMBL document CHEMBL5291721, “A preclinical secondary pharmacology resource illuminates target-adverse drug reaction associations of marketed drugs” (Nat Commun, 2023), this text covers AC50 for six compounds.

Assay [1] addresses Beta-1 adrenergic receptor (Homo sapiens, UniProt P08588). The assay is classed as functional, cell-based.
Assay [2] concerns the target T1, Muscarinic acetylcholine receptor M1 (Homo sapiens, UniProt P11229).
T1 sequence (P11229 whole entry): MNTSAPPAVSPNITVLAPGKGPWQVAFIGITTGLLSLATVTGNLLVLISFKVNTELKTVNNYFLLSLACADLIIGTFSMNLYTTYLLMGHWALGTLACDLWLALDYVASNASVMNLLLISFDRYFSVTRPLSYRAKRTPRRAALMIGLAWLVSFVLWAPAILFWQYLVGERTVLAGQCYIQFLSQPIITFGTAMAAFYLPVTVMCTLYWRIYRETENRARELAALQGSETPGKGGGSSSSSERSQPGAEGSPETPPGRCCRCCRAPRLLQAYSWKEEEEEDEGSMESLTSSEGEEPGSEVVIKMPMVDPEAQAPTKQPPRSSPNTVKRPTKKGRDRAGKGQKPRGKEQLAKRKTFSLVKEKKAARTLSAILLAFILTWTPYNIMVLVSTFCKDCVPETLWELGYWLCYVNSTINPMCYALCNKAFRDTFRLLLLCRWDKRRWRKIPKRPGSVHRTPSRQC
It counts as functional, cell-based.

For assay [3], the target named is T1, Muscarinic acetylcholine receptor M1. The assay is classed as functional, cell-based. The source holds these as a separate data set.
The target in assay [4] is T2, Prostaglandin G/H synthase 1 (Rattus norvegicus, UniProt Q63921).
T2 sequence (Q63921 whole entry): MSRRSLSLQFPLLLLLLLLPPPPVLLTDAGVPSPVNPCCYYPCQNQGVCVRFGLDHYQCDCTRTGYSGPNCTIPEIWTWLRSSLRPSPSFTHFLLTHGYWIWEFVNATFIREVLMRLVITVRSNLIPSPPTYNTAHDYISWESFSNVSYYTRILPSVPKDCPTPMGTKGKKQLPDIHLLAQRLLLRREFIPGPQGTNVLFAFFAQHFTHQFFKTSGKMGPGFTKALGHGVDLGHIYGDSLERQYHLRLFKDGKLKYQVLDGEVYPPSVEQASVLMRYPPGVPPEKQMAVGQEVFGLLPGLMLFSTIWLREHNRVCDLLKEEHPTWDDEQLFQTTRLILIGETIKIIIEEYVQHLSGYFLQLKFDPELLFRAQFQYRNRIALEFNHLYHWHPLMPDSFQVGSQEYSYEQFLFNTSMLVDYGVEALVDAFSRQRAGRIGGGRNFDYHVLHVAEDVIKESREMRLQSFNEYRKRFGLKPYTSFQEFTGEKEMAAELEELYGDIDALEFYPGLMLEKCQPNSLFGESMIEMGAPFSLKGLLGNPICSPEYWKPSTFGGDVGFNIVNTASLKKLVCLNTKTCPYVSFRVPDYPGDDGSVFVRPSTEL
It counts as functional.

Assay [5] concerns the target T3, Type-2 angiotensin II receptor (Homo sapiens, UniProt P50052).
T3 sequence (P50052 whole entry): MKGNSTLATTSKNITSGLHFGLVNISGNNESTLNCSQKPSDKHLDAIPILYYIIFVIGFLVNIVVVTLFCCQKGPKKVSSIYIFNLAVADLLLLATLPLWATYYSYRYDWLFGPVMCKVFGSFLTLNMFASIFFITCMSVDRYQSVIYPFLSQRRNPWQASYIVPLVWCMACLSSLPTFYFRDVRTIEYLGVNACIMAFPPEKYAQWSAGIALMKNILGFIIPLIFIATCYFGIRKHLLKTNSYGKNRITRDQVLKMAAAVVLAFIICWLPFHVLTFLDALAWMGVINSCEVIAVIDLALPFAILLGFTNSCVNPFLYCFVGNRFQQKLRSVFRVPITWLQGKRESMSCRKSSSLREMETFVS
It counts as functional.

Assay [6] has as its target T4, Type-1 angiotensin II receptor (Homo sapiens, UniProt P30556).
T4 sequence (P30556 whole entry): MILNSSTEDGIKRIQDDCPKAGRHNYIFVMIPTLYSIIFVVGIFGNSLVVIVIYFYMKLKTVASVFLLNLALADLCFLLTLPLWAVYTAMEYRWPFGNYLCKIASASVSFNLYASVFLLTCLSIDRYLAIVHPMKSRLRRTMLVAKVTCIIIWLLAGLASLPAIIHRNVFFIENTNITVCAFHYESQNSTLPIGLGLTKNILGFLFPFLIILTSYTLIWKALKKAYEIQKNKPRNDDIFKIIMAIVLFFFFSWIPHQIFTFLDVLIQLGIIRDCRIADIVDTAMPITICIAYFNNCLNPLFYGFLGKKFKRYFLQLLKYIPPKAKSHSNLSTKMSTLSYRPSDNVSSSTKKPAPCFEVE

The target of assay [7] is T5, 5-hydroxytryptamine receptor 1A (Homo sapiens, UniProt P08908).
T5 sequence (P08908 whole entry): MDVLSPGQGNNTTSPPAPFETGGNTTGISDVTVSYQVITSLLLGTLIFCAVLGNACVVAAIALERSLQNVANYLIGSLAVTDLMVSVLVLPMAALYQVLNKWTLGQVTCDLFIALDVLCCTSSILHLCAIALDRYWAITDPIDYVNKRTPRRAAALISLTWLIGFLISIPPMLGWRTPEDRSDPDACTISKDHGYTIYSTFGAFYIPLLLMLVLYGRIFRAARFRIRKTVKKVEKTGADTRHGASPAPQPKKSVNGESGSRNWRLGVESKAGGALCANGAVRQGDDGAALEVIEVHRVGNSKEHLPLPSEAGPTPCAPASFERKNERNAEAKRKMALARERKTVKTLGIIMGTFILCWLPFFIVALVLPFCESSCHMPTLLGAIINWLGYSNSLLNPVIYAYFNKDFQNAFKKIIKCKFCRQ

Assay [8] concerns the target Retinoic acid receptor gamma (Homo sapiens, UniProt P13631). It counts as functional, cell-based.
Assay [9] addresses Oxysterols receptor LXR-alpha (Homo sapiens, UniProt Q13133). The assay is classed as functional.
For assay [10], the target named is T4, Type-1 angiotensin II receptor. This is another data set of the same source.
The target in assay [11] is Oxysterols receptor LXR-beta (Homo sapiens, UniProt P55055). The assay is classed as functional.
Assay [12] addresses Retinoic acid receptor alpha (Homo sapiens, UniProt P10276). The assay is classed as functional, cell-based.

Where only a bound is given, the exact number is not on record here.
Note: assay procedure not described here.

Retinoic acid receptor gamma, sequence (P13631 whole entry): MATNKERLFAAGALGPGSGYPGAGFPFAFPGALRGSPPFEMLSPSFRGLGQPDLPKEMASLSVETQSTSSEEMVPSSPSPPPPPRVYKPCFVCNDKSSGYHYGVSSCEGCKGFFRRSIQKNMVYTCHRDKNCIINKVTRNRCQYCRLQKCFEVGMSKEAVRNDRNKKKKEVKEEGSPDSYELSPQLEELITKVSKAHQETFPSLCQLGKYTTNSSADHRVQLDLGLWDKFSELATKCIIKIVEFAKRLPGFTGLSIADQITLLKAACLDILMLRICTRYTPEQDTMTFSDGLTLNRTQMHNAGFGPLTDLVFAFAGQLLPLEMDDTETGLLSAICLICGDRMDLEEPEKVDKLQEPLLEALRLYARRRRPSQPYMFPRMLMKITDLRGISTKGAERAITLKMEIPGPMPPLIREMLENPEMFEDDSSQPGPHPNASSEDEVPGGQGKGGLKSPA
Oxysterols receptor LXR-beta, sequence (P55055 whole entry): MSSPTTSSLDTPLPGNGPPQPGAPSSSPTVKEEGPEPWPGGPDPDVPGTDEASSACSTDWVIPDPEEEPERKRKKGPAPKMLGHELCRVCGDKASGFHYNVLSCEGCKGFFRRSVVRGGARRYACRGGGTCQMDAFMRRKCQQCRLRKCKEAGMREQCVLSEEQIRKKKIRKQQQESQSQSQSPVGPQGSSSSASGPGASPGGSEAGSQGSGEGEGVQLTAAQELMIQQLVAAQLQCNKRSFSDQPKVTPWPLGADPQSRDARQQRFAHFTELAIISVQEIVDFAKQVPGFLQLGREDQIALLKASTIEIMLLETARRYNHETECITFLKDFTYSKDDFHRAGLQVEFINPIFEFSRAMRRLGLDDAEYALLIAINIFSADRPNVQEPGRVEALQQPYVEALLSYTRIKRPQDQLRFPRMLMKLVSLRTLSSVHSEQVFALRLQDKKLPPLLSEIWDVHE
Retinoic acid receptor alpha, sequence (P10276 whole entry): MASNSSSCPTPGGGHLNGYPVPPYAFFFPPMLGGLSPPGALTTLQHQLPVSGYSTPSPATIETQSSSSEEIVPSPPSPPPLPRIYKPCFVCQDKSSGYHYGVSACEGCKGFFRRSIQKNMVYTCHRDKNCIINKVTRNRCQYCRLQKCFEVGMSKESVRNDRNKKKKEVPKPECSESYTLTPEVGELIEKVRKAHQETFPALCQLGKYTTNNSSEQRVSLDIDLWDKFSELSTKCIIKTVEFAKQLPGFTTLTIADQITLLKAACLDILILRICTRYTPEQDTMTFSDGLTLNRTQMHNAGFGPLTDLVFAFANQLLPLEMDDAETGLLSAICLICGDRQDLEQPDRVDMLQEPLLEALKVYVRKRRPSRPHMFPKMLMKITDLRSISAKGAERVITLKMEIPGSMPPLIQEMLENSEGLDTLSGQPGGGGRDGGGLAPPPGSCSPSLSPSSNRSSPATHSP
Oxysterols receptor LXR-alpha, sequence (Q13133 whole entry): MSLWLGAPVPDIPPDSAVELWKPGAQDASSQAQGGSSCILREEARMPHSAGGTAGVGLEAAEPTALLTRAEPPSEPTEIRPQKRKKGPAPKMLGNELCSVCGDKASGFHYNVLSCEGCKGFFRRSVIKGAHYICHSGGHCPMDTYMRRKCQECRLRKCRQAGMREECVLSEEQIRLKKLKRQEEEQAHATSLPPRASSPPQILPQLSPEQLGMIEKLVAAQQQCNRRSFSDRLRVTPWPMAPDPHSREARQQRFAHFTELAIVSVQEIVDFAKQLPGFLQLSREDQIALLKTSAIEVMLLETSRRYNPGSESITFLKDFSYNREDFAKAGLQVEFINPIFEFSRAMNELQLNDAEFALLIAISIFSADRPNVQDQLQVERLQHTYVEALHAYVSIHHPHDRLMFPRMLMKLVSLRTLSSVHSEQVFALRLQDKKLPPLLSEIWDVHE
Beta-1 adrenergic receptor, sequence (P08588 whole entry): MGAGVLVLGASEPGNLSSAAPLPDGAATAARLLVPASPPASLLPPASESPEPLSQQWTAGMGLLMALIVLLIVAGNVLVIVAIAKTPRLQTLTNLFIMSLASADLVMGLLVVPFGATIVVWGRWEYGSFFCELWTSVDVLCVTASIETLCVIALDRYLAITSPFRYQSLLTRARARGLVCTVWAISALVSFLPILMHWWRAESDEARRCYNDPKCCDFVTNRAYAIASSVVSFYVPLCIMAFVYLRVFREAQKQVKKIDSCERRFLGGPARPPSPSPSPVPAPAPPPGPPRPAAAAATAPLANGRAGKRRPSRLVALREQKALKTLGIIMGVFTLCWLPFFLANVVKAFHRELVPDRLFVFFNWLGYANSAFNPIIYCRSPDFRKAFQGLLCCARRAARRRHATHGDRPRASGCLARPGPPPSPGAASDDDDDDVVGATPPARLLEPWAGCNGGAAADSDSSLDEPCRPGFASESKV

Regarding `CC(C)C[C@H](NC(=O)[C@@H](O)[C@H](N)Cc1ccccc1)C(=O)O` [UBENIMEX], in assay [1], the AC50 (in general, the midpoint of the concentration-response curve, whichever way the signal moves) is above 30 µM.

In the case of `O=C1Cc2cc(CCN3CCN(c4nsc5ccccc45)CC3)c(Cl)cc2N1` [ZIPRASIDONE], the AC50 is above 30 µM in [2] and 20 µM in assay [3].

Consider `CN(CCOc1ccc(CC2SC(=O)NC2=O)cc1)c1ccccn1` (configuration not stated) [ROSIGLITAZONE], for which the concentration at half-maximal activity (AC50) in assay [4] is above 30 µM.

For the compound `CCOc1nc2cccc(C(=O)O)c2n1Cc1ccc(-c2ccccc2-c2nnn[nH]2)cc1`, the AC50 in assay [5] was determined as 84.8 µM; in assay [6], 0.0004 µM.

In turn, `CC[C@@H](CO)NC(=O)[C@@H]1C=C2c3cccc4c3c(cn4C)C[C@H]2N(C)C1` [METHYSERGIDE] showed an AC50 in assay [7] of 0.17 µM. In other words, the sub-micromolar range.

`COc1cc(C(=O)NS(=O)(=O)c2ccccc2C)ccc1Cc1cn(C)c2ccc(NC(=O)OC3CCCC3)cc12` [ZAFIRLUKAST]: the AC50 in [8] was above 30 µM; in [9] it was above 30 µM; in [10] it was 50 µM; in assay [11] it was above 30 µM; in assay [12], above 30 µM.
